# According to patent US6069145A, “Piperazinonephenyloxazolidinone derivatives and their use as antibacterial agents” (Zeneca Limited, priority 1996, dated 2000):
# Experiments:
# Type in all cases: cell-based
# Bacillus subtilis = assay: agar-dilution MIC, B. subtilis; conditions: 10^4 CFU/spot
# Excerpt: (§1) The following results were obtained on a standard in vitro test system. The activity is described in terms of the minimum inhibitory concentration (MIC) determined by the agar-dilution technique with an inoculum size of 10^4 CFU/spot.
# [1] = test system: Streptococcus pyogenes C203; assay: agar-dilution MIC, S. pyogenes C203; conditions: agar with 5% defibrinated horse blood, 10^4 CFU/spot, 37° C., 5% carbon dioxide, 48 hours
# Protocol: as §1
# (§2) Streptococci and enterococci were tested on agar supplemented with 5% defibrinated horse blood, an inoculum of 10^4 CFU/spot and an incubation temperature of 37° C. in an atmosphere of 5% carbon dioxide for 48 hours--blood is required for the growth of some of the test organisms.
# Enterococcus faecalis = assay: agar-dilution MIC, E. faecalis; conditions: agar with 5% defibrinated horse blood, 10^4 CFU/spot, 37° C., 5% carbon dioxide, 48 hours
# Protocol: as §1, §2
# [2] = test system: Staphylococcus aureus MRQR; assay: agar-dilution MIC, S. aureus MRQR; conditions: methicillin resistant quinolone resistant, 10^4 CFU/spot, 37° C., 24 hours
# Protocol: as §1
# (§3) Staphylococci were tested on agar, using an inoculum of 10^4 CFU/spot and an incubation temperature of 37° C. for 24 hours--standard test conditions for the expression of methicillin resistance.
# MRQR = methicillin resistant quinolone resistant
# [3] = test system: Coagulase Negative Staphylococci MS; assay: agar-dilution MIC, coagulase negative staphylococci MS; conditions: 10^4 CFU/spot, 37° C., 24 hours
# Protocol: as §1, §3
# [4] = test system: Coagulase Negative Staphylococci MR; assay: agar-dilution MIC, coagulase negative staphylococci MR; conditions: methicillin resistant, 10^4 CFU/spot, 37° C., 24 hours
# Protocol: as §1, §3
# MR = methicillin resistant
# [5] = test system: Staphylococcus aureus Oxford; assay: agar-dilution MIC, S. aureus Oxford; conditions: 10^4 CFU/spot, 37° C., 24 hours
# Protocol: as §1, §3
# [6] = test system: Staphylococcus aureus MRQS; assay: agar-dilution MIC, S. aureus MRQS; conditions: methicillin resistant quinolone sensitive, 10^4 CFU/spot, 37° C., 24 hours
# Protocol: as §1, §3
# MRQS = methicillin resistant quinolone sensitive
smiles,measurement,setting,value
"CC(=O)NC[C@H]1CN(c2ccc(N3CCN(C)C(=O)C3)c(F)c2)C(=O)O1 [Example 1, N-(5S)-[3-(3-fluoro-4-{4-methyl-3-oxopiperazin-1-yl}phenyl)-2-oxooxazolidin-5-ylmethyl]acetamide]",MIC,Bacillus subtilis,1 µg/mL
same,MIC,[1],1 µg/mL
same,MIC,Enterococcus faecalis,2 µg/mL
same,MIC,[2],4 µg/mL
same,MIC,[3],0.5 µg/mL
same,MIC,[4],1 µg/mL
same,MIC,[5],1 µg/mL
same,MIC,[6],2 µg/mL
